Literature values in PMC8067797, “An In Vivo Predictive Dissolution Methodology (iPD Methodology) with a BCS Class IIb Drug Can Predict the In Vivo Bioequivalence Results: Etoricoxib Products” (Pharmaceutics, 2021).
Values after ≈ are worked out from the molar mass of the structure shown. Values joined by “and” are separate entries in the source; they are usually repeats but may differ in a detail not shown here. Equal entries are not always repeated. Where two headings read alike, the source gives them in different places.

How the values were obtained:
[1] = design: method as in Schwartz et al. [23]; conditions: ref Schwartz et al. [23]
[2] = design: method as in Okumu et al. [7]; conditions: ref Okumu et al. [7]
[3] = not given; remark: listed apart in the source
[4] = system: Caco-2; conditions: used for plasma simulations; ref [6]
[5] = not given; remark: listed apart in the source
[6] = curve fitting of literature data, ref [6]

reduction of plasma Cmax ([1]; with calcium carbonate): 23%
reduction of plasma Cmax ([1]; with magnesium and aluminum hydroxide): 15%
BCS classification (low solubility pH 4–7, high permeability): BCS class II
logP (ref [14]): 2.79 and 2.794
pKa (weak base, ref [6],[7]): 4.96
precipitation in transfer system [2]: did not observe precipitation
supersaturation ratio (dissolved concentration / equilibrium solubility) ([2]; transfer system): below 3
Cs, solubility ([3]; pH 4.5, ref [7]): 440 µg/mL
solubility in FaSSIF or simulated intestinal fluids (SIF phosphate buffer) ([3]; pH 6.8, ref [7]): 140 µg/mL (≈ 0.39 mM)
solubility in the stomach ([3]; ref Mitra el al. [6]): 25000 µg/mL (≈ 69.7 mM)
Effective Permeability Small Intestine—Peff [4]: 475 ×10⁻⁶ cm/s
Central compartment volume—Vc ([5]; average value, curve fitting of literature data, ref [6],[9],[21]): 27.40 L
Distribution rate constant from central to peripheral compartment—k12 [5, 6]: 0.6180 h⁻¹
Distribution rate constant from peripheral to central compartment—k21 [5, 6]: 0.2820 h⁻¹
Elimination rate constant from central compartment—ke [5, 6]: 0.0899 h⁻¹
Pharmacokinetics dose linearity ([5]; dose range 30–240 mg, ref [8]): linear
oral bioavailability ([5]; oral dosing, ref [8]): up to 100%
Oral absolute bioavailability ([5]; ref [9]): 83%
Oral absolute bioavailability ([5]; ref [10]): practically complete
SMILES: Cc1ccc(-c2ncc(Cl)cc2-c2ccc(S(C)(=O)=O)cc2)cn1 [ETO, Etoricoxib]
